Read-outs that look alike come from different tables or passages of the source. Marks after values point to notes of the source that are not given here.
Key:
[1] = test system: SD rat; assay type: in vivo; settings: for LDso: once subcutaneously, after 7 days
Method: To investigate an acute toxicity of icariin, icariin was administered to SD rat. Total of 50 rats divide into 5 groups randomly and each group included 5 male and 5 female rats, respectively. The maximum dosage group for 3.0 g/kg, medium dosage group for 2.0 g/kg, sub-medium group for 1.0 g/kg and the minimum dosage group for 0.5 g/kg and comparative group for physiological saline solution only. Each of the drugs was once administered subcutaneously. After 7 days, it was shown that LDso of male was 1.88 g/kg and female was 1.96 g/kg.

[2] = test system: rabbit's CC smooth muscle; assay: Relaxation of PHE pre-contracted corpus cavernosum smooth muscle strips in organ chamber; assay type: cell-based
Method: Sixty adults male New Zealand white rabbits(Weight: 2.5-3.0 kg) were used. Rabbits were anesthesia with sodium pentobarbital(50 mg/kg), penis was removed and corpus cavernous tissue were carefully isolated and made into 2×2×6 mm muscle strips for isometric tension was measured in organ chamber in vitro study with polygraph(MP 100 WS:Biopac systems, USA). CC muscle strip was fixed in 10 ml organ chamber containing Tyrode solution and continuously supplied with mixed gas(95% O2 and 5% CO2) and keep temperature at 37° C. The initial resting tensions of muscle strips were set at 2 g and tissue was allowed to equilibrate for 1.5-3.0 hours. Sub-maximal contractile responses to phenylepherine(PHE 5×10^-6 M) were observed and optimal isometric tension was determined. To evaluate the relaxation effects of icariin (the other components magnoflorine, querectin, epimedin A, B and C as the controls) on CC muscle strips, investigated the relaxation effects of different dosage of icariin on muscle strips pre-contracted by PHE. And to investigate the pharmaceutical action mechanism, the effects of […] Nω-nitric-L-arginine(L-NNA), guanylate cyclase antagonist methylene blue and pyrogallol, soluble guanylate cyclase inhibitor 1H-[1,2,4]oxadiazolo[4,3,-a]quinoxalin-1-one (ODQ) on the relaxation effects of icariin on CC.

[3] = test system: adult male rat; assay: Intracavernosal press (ICP) changes after intracavernosal administration and cavernous nerve electrical stimulation; assay type: in vivo; settings: CN stimulation 10 minutes later
Method: (§1) Twenty-four male, adult Wistar rats(weight:300-350 g) were used. After anesthetization, the left carotid artery was cannulated to monitor mean arterial pressure (MAP). Bipolar electrodes were positioned on the cavernous nerve (CN); the right cavernous body was cannulated with 26 G needle connected with Biopack MP100 to monitor ICP changes. After intracavemosal administration of 100 μl different concentration Icariin or Reserpine (10^−8M to 10^−4M) respectively, the CN was electrically stimulated (ES) 10 minutes later and ICP and MAP were monitored. In order to investigate the possible mechanism of the effect of icariin on ICP changes, 100 μl different concentration guanylate cyclase inhibitor ODQ (10^−8M-10^−4M) were intracavemosal administrated 10 minutes after Icariin (100 μl 10^−4M) administration into CC, and then the ICP was measured during erection, which was, followed the ES.

[4] = test system: adult male rat; settings: in vivo
Method: as §1

[5] = test system: cGMP formation in rabbit corpus cavernosum; assay: cGMP formation in corpus cavernosum of penis stimulated with SNP, radioimmunoassay; assay type: cell-based; settings: in the presence of SNP
[6] = test system: cAMP formation in rabbit corpus cavernosum; assay: cAMP formation in corpus cavernosum of penis stimulated with SNP, radioimmunoassay; assay type: cell-based
[7] = biological target: T1, PDE5 isolated from human platelets (Homo sapiens, UniProt O76074); assay: Inhibition of cGMP specific PDE5, two-step radioisotope procedure; assay type: biochemical
T1 construct: PDE5 and PDE4 were isolated from human platelets and liver tissue using a Pharmacia FPLC system and Mono Q column; from tissue; host or cells: human platelets
Method: (§2) PDE5 and PDE4 were isolated from human platelets and liver tissue using a Pharmacia FPLC system and Mono Q column. The cyclic nucleotide PDE5/PDE4 activities in FPLC fractions were determined using a modification of the two-step radioisotope procedure ([^3H]GMP/[^3H]AMP).

[8] = test system: PDE4 isolated from human liver tissue; assay: Inhibition of cAMP specific PDE4, two-step radioisotope procedure; assay type: biochemical
Method: as §2

[9] = test system: cGMP formation in clitoris CC of female rabbits; assay: cGMP formation in CC of clitoris stimulated with SNP, radioimmunoassay; assay type: cell-based, rabbit
[10] = test system: castrated male Wistar rats; assay: Sexual activities (mating behavior) in castrated rat model after long-term oral administration; assay type: in vivo; settings: Group C and D, oral icariin for 3 months, n=10/12
Method: (§3) Male Wistar rats(300-350 g)(n=24) randomly divide into 4 Groups; Group A for control; Group B for castrated and administration normal saline; Group C for castrated and oral administration Icariin […]; Group D for castrated and oral administration Icariin (5 mg/kg) for 3 months. After observe mating behavior, the animal was killed, the penis was excised rapidly, and cut into four parts. One of them used for immuohistochemical stain, the others was socked into RNAlater and stored in −70 condition. nNOS, eNOS, iNOS mRNA were semi-quantified by RT-PCR, β-actin as a controls. Specificity of RT-PCR products was confirmed by sequencing procedure, with-assay and between-assay variation was carried out respectively.

[11] = test system: iNOS mRNA; assay: iNOS mRNA expression in penis of castrated rat model by RT-PCR; assay type: in vivo; settings: for Mean conc./area (iNOS) / Ratio (iNOS/β-actin): castrated, 3 months
Method: as §3

[12] = test system: nNOS mRNA; assay: nNOS mRNA expression in penis of castrated rat model by RT-PCR; assay type: in vivo; settings: for Mean conc./area (nNOS) / Ratio (nNOS/β-actin): castrated, 3 months
Method: as §3

## COc1ccc(-c2oc3c(CC=C(C)C)c(O[C@@H]4O[C@H](CO)[C@@H](O)[C@H](O)[C@H]4O)cc(O)c3c(=O)c2O[C@@H]2O[C@@H](C)[C@H](O)[C@@H](O)[C@H]2O)cc1 [Icariin, icariin]
[1]; SD rat, subcutaneous
  acute toxicity: low toxicity
[1]; female SD rat
  LDso: 1960 mg/kg
[1]; male SD rat
  LDso: 1880 mg/kg
[2]; Oryctolagus cuniculus, read-out: EC50 on the relaxation effects of CC smooth muscle
  EC50: 467 µM
[2]; icariin 10^−4M
  relaxation effects on pre-contracted CC muscle strips: 23.12 ± 1.36%
[2]; icariin 10^−5M
  relaxation effects on pre-contracted CC muscle strips: 4.42±1.08%
[2]; icariin 10^−6M
  relaxation effects on pre-contracted CC muscle strips: 1.23±0.82%
[2]; icariin 10^−7M
  relaxation effects on pre-contracted CC muscle strips: 0.08±0.04%
[3]; 100 μl 10^−4M intracavernosal
  Increase ICP: 58.01 ± 5.78%
[3]; 100 μl 10^−5M intracavernosal
  Increase ICP: 30.48 ± 3.06%
[3]; 100 μl 10^−6M intracavernosal
  Increase ICP: 10.82 ± 1.06%
[3]; 100 μl 10^−7M intracavernosal
  Increase ICP: 5.53 ± 0.69%
[4]
  influence on MAP: no obviously influence
[5]; 10^−3M
  cGMP concentration changes: 10.43 ± 1.49 fmol/mg/min
[5]; 10^−4M
  cGMP concentration changes: 10.82 ± 1.58 fmol/mg/min
[5]; 10^−5M
  cGMP concentration changes: 8.92 ± 1.67 fmol/mg/min
[5]; 10^−6M
  cGMP concentration changes: 8.66 ± 2.03 fmol/mg/min
[6]
  influence on cAMP levels: no significantly influenced
[7]
  IC50: 0.432 µM
  inhibiting potency on PDE5 weaker than that of Sildenafil: 108.10 times
[7]; ratio of IC50 PDE4/PDE5
  specificity of inhibition PDE5 compared to PDE4: 170.14 times
[8]
  IC50: 73.5 µM
[9]
  cGMP concentration in clitoris CC: significantly increased
[9]; Oryctolagus cuniculus, read-out: EC50 (cGMP formation, CC of clitoris)
  EC50: 3.16 µM
[10]
  castrated rats restored sexual activities: 83.3%
[11]; Group C and D, p<0.05
  iNOS mRNA compared to control Group B: significantly increased
[11]; Group C, oral Icariin (mg/kg)
  Mean conc./area (iNOS): 17.28
  Ratio (iNOS/β-actin): 0.50*
[11]; Group D, oral Icariin 5 mg/kg
  Mean conc./area (iNOS): 23.20
  Ratio (iNOS/β-actin): 0.74*
[12]; Group C and D, p<0.05
  nNOS mRNA compared to control Group B: significantly increased
[12]; Group C, oral Icariin (mg/kg)
  Mean conc./area (nNOS): 44.60
  Ratio (nNOS/β-actin): 0.82*
[12]; Group D, oral Icariin 5 mg/kg
  Mean conc./area (nNOS): 36.40
  Ratio (nNOS/β-actin): 1.08*

Reference: US6916845B2, “Method for prevention and treatment of male and female sexual dysfunction” (priority 1999, dated 2005)
